Reference: ChEMBL document CHEMBL1130043, “Chemometric methodologies in a quantitative structure-activity relationship study: the antibacterial activity of 6-aminoquinolones” (1997)

Legend:
Type in all cases: functional
[1] = tested on: Acinetobacter calcoaceticus; assay: Antibacterial activity against Acinetobacter calcoaceticus OSMPV 113 (Gram negative) strain.
Escherichia coli [2] = assay: Antibacterial activity against Escherichia coli ATCC 8739(Gram negative) strain.
Escherichia coli [3] = assay: Antibacterial activity against Escherichia coli ISF 432(Gram negative) strain.
Enterobacter cloacae = assay: Antibacterial activity against Enterobacter cloacae OMNFI 174 (Gram negative) strain.
Klebsiella pneumoniae = assay: Antibacterial activity against Klebsiella pneumoniae ATCC 10031 (Gram negative) strain.
Providencia stuartii = assay: Antibacterial activity against Providencia stuartii CNUR 5(Gram negative) strain.
Pseudomonas aeruginosa = assay: Antibacterial activity against Pseudomonas aeruginosa ATCC 9027(Gram negative) strain.
Shigella = assay: Antibacterial activity against Shigella enteritidis (Gram negative) strain.
[4] = tested on: Staphylococcus epidermidis; assay: Antibacterial activity against Staphylococcus epidermidis HCF Berset C (Gram positive) strain.
[5] = tested on: Staphylococcus epidermidis; assay: Antibacterial activity against Staphylococcus epidermidis CPHL A2 (Gram positive) strain, activity is expressed as log2MIC.
Staphylococcus aureus [6] = assay: Antibacterial activity against Staphylococcus aureus MPR 5 (Gram positive) strain.
Enterococcus faecalis = assay: Antibacterial activity against Streptococcus faecalis LEP Br (Gram positive) strain.
Staphylococcus aureus [7] = assay: Antibacterial activity against Staphylococcus aureus ATCC 6538 (Gram positive) strain.
[8] = tested on: Staphylococcus epidermidis; assay: The compound was tested in vitro for antibacterial activity against Staphylococcus epidermidis CPHL A2 (Gram positive) strain

| Structure (SMILES) | Log2 MIC [1] | Log2 MIC (Escherichia coli [2]) | Log2 MIC (Escherichia coli [3]) | Log2 MIC (Enterobacter cloacae) | Log2 MIC (Klebsiella pneumoniae) | Log2 MIC (Providencia stuartii) | Log2 MIC (Pseudomonas aeruginosa) | Log2 MIC (Shigella) | Log2 MIC [4] | Log2 MIC [5] | Log2 MIC (Staphylococcus aureus [6]) | Log2 MIC (Enterococcus faecalis) | Log2 MIC (Staphylococcus aureus [7]) | Log2 MIC [8] |
| --- | --- | --- | --- | --- | --- | --- | --- | --- | --- | --- | --- | --- | --- | --- |
| Nc1cc2c(=O)c(C(=O)O)cn(C3CC3)c2c(F)c1N1CCSCC1 | 7 | 10 | 11 | 7 | 12 | 8 | 5 | 5 | 7 | 8 | 9 | 5 | 8 | – |
| NCCN1CCN(c2cc3c(cc2N)c(=O)c(C(=O)O)cn3C2CC2)CC1 | 2 | 8 | 8 | 6 | 8 | 0 | 2 | 6 | 2 | 1 | 0 | 0 | 0 | – |
| Cc1c(N2CCN(C)CC2)c(N)cc2c(=O)c(C(=O)O)cn(C3CC3)c12 | – | 12 | 12 | 10 | 12 | 6 | 6 | 11 | 7 | – | 8 | 5 | 8 | 7 |
| NCCSc1cc2c(cc1N)c(=O)c(C(=O)O)cn2C1CC1 | 0 | 7 | 7 | 0 | 6 | 0 | 0 | 0 | 0 | 0 | 0 | 0 | 0 | – |
| CN1CCN(c2cc3c(c(N)c2N)c(=O)c(C(=O)O)cn3C2CC2)CC1 | 0 | 3 | 3 | 0 | 2 | 0 | 0 | 0 | 0 | 0 | 0 | 0 | 0 | – |
| CC(=O)NC1CCN(c2cc3c(cc2N)c(=O)c(C(=O)O)cn3C2CC2)C1 (stereo not given) | 0 | 5 | 5 | 0 | 5 | 0 | 0 | 0 | 0 | – | 0 | 0 | 0 | 0 |
| Nc1cc2c(=O)c(C(=O)O)cn(C3CC3)c2cc1N1CCCC1 | 0 | 9 | 9 | 4 | 9 | 0 | 0 | 3 | 0 | 0 | 0 | 0 | 0 | – |
| Cc1c(N2CCOCC2)c(N)cc2c(=O)c(C(=O)O)cn(C3CC3)c12 | – | 12 | 12 | 10 | 12 | 8 | 7 | 10 | 10 | – | 10 | 7 | 10 | 9 |
| Nc1cc2c(=O)c(C(=O)O)cn(-c3ccc(F)cc3)c2cc1N1CCSCC1 | 5 | 11 | 12 | 5 | 12 | 5 | 0 | 5 | 5 | 5 | 7 | 0 | 8 | – |
| CN1CCN(c2cc3c(cc2N)c(=O)c(C(=O)O)cn3-c2ccc(F)cc2)CC1 | 3 | 10 | 10 | 5 | 10 | 5 | 4 | 5 | 4 | 4 | 5 | 1 | 4 | – |
| Cc1c(N2CCC(O)CC2)c(N)cc2c(=O)c(C(=O)O)cn(C3CC3)c12 | 10 | 7 | 12 | 8 | 12 | 7 | 6 | 9 | 11 | – | 10 | 8 | 11 | 11 |
| Cc1c(N2CCNCC2)c(N)cc2c(=O)c(C(=O)O)cn(C3CC3)c12 | 6 | 12 | 12 | 11 | 12 | 6 | 7 | 12 | 4 | 5 | 5 | 3 | 6 | – |
| CN1CCN(c2cc3c(cc2N)c(=O)c(C(=O)O)cn3C(C)(C)C)CC1 | 5 | 11 | 11 | 7 | 11 | 5 | 5 | 7 | 5 | 6 | 6 | 2 | 6 | – |
| Cc1c(N2Cc3ccccc3C2)c(N)cc2c(=O)c(C(=O)O)cn(C3CC3)c12 | – | 13 | 13 | 9 | 11 | 11 | 8 | 9 | 12 | – | 13 | 9 | 13 | 13 |
| CC(C)(C)n1cc(C(=O)O)c(=O)c2cc(N)c(N3CCN(c4ccccn4)CC3)cc21 | 7 | 8 | 8 | 1 | 9 | 0 | 0 | 1 | 6 | 7 | 7 | 3 | 7 | – |
| CN1CCN(c2nc3c(cc2N)c(=O)c(C(=O)O)cn3C2CC2)CC1 | 5 | 10 | 12 | 10 | 12 | 6 | 6 | 10 | 5 | 5 | 5 | 0 | 5 | – |
